Each structure is given as a SMILES string. pIC50: −log10 of the molar value.

For the first test, the target named is T1, HSP90α (Homo sapiens, UniProt P07900).
T1 construct: 6H is tagged HSP90α protein (amino acids 2-732) expressed in E. coli; 6His; made in house; host or cells: E. coli
The experiment in a line: Test (a) In Vitro Binding Assay (fluorescence polarisation, binding to the ATP pocket of HSP90α). As to conditions: FP probe displacement, geometric mean where tested more than once. As for the experimental part: Test (a) In Vitro Binding Assay
Test (a) measures the ability of a compound to bind to the ATP pocket of HSP90α. 6H is tagged HSP90α protein (amino acids 2-732) expressed in E. coli was purified and stored at −80° C. in aliquots. Assay measurements were performed in assay buffer comprising 20 mM HEPES pH 7.4, 50 mM KCl, 20 mM NaHMoO4, 0.01% Nonidet P40, 2 mM DTT and 0.1 mg/ml BSA. Following resuspension in DMSO, the FP probe 3-[[5-(5-ethyl-2,4-dihydroxy-phenyl)-4-(4-methoxyphenyl)2H-pyrazole-3-carbonyl]amino]propyl-Cy3B-amide; 14-(2-{[3-({[3-(5-ethyl-2,4-dihydroxyphenyl)-4-(4-methoxyphenyl)-1H-pyrazol-5-yl]carbonyl}amino)propyl]amino}-2-oxoethyl)-16,16,18,18-tetramethyl-2-sulfo-6,7,7a,8a,9,10,16,18-octahydrobenzo[2″,3″]indolizino [8″,7″:5′,6′]pyrano[3′,2′:3,4]pyrido[1,2-a]indol-5-ium) was diluted to a final concentration of 5 nM in assay buffer. Test compounds were prepared by dilution in 100% DMSO to give the appropriate dose range and dispensed into a 384 well assay plate as a 6X concentrate. Upon addition of recombinant HSP90α to a final assay concentration of 1 μg/ml, FP probe was added and plates incubated at room temperature for 1 to 4 hours. Final DMSO concentration was 1% in a total assay volume of 18 μl. Fluorescence Polarisation measurements were made using a Tecan Ultra plate reader using an excitation wavelength of 530 nm and an emission wavelength of 590 nm. Millipolarisation (mP) values were estimated using Xfluor software.
The data in the above table was generated in an assay substantially as described above in relation to in-vitro Binding Assay (a). Some of the compounds shown in the table were tested more than once in the assay. For those compounds the IC50 value shown is the geometric mean of the measured IC50 values. Therefore, as will be understood, the IC50 values quoted above are not absolute and further measurements of the IC50 values may result in a different mean IC50 value.
A general note: In fluorescence polarisation assays a small probe gives low polarisation when free and higher when bound to something large.
Regarding `COc1c(C)cnc(CN2c3nc(N)ncc3NC(=O)[C@@H]2C)c1C` [Example 1, (7S)-2-amino-8-[(4-methoxy-3,5-dimethylpyridin-2-yl)methyl]-7-methyl-7,8-dihydropteridin-6(5H)-one], the pIC50 is 5.00.
Take `CCC[C@H]1C(=O)Nc2cnc(N)nc2N1Cc1ncc(C)c(OC)c1C` [Example 2.1, (7S)-2-amino-8-[(4-methoxy-3,5-dimethylpyridin-2-yl)methyl]-7-propyl-7,8-dihydropteridin-6(5H)-one]: the pIC50 is 4.83.
For the compound `COc1c(C)cnc(CN2c3nc(N)ncc3NC(=O)[C@H]2C)c1C` [Example 2.2, (7R)-2-amino-8-[(4-methoxy-3,5-dimethylpyridin-2-yl)methyl]-7-methyl-7,8-dihydropteridin-6(5H)-one], the negative-log IC50 (pIC50) is 6.07.
In turn, `COc1c(C)cnc(CN2CC(=O)Nc3cnc(N)nc32)c1C` [Example 2.3, 2-amino-8-[(4-methoxy-3,5-dimethylpyridin-2-yl)methyl]-7,8-dihydropteridin-6(5H)-one] showed a negative-log IC50 (pIC50) of 5.94.
As to `COc1c(C)cnc(CN2c3nc(N)ncc3N(C)C(=O)[C@@H]2C)c1C` [Example 3, (7S)-2-amino-8-[(4-methoxy-3,5-dimethylpyridin-2-yl)methyl]-5,7-dimethyl-7,8-dihydropteridin-6(5H)-one], the negative logarithm of the IC50 (pIC50) was 4.73.
Turning to `CCN1C(=O)[C@H](C)N(Cc2ncc(C)c(OC)c2C)c2nc(N)ncc21` [Example 4.1, (7S)-2-amino-5-ethyl-8-[(4-methoxy-3,5-dimethylpyridin-2-yl)methyl]-7-methyl-7,8-dihydropteridin-6(5H)-one], the pIC50 was 4.78.
With `COc1c(C)cnc(CN2c3nc(N)ncc3N(C)C(=O)[C@H]2C)c1C` [Example 4.2, (7R)-2-amino-8-[(4-methoxy-3,5-dimethylpyridin-2-yl)methyl]-5,7-dimethyl-7,8-dihydropteridin-6(5H)-one], the pIC50 was 6.10.
For `COc1c(C)cnc(CN2CC(=O)N(C)c3cnc(N)nc32)c1C` [Example 4.3, 2-amino-8-[(4-methoxy-3,5-dimethylpyridin-2-yl)methyl]-5-methyl-7,8-dihydropteridin-6(5H)-one], the negative-log IC50 (pIC50) is 6.48.
For the compound `COc1c(C)cnc(CN2c3nc(N)ncc3NC[C@@H]2C)c1C` [Example 5, (7S)-8-[(4-methoxy-3,5-dimethylpyridin-2-yl)methyl]-7-methyl-5,6,7,8-tetrahydropteridin-2-amine], the negative-log IC50 (pIC50) is 4.09.
In the case of `COc1c(C)cnc(CN2c3nc(N)ncc3N(C)C[C@@H]2C)c1C` [Example 6.1, (7S)-8-[(4-methoxy-3,5-dimethylpyridin-2-yl)methyl]-5,7-dimethyl-5,6,7,8-tetrahydropteridin-2-amine], the pIC50 was 3.82.
Compound `COc1c(C)cnc(CN2c3nc(N)ncc3NC[C@H]2C)c1C` [Example 6.2, (7R)-8-[(4-methoxy-3,5-dimethylpyridin-2-yl)methyl]-7-methyl-5,6,7,8-tetrahydropteridin-2-amine] had a negative logarithm of the IC50 (pIC50) of 5.54.
On to `COc1c(C)cnc(CN2c3nc(N)ncc3N(C)C[C@H]2C)c1C` [Example 6.3, (7R)-8-[(4-methoxy-3,5-dimethylpyridin-2-yl)methyl]-5,7-dimethyl-5,6,7,8-tetrahydropteridin-2-amine], for which the pIC50 was 4.81.
In turn, `COc1c(C)cnc(CN2CCN(C)c3cnc(N)nc32)c1C` [Example 6.4, 8-[(4-methoxy-3,5-dimethylpyridin-2-yl)methyl]-5-methyl-5,6,7,8-tetrahydropteridin-2-amine] had a pIC50 of 4.89.
For `COc1c(C)cnc(CN2c3nc(N)ncc3NC(=O)[C@H]2CC(C)C)c1C` [Example 7.1, (7R)-2-amino-8-[(4-methoxy-3,5-dimethyl-pyridin-2-yl)methyl]-7-(2-methylpropyl)-7,8-dihydropteridin-6(5H)-one], the negative logarithm of the IC50 (pIC50) is 5.71.
`COc1c(C)cnc(CN2c3nc(N)ncc3NC(=O)[C@H]2Cc2ccccc2)c1C` [Example 7.2, (7R)-2-amino-7-benzyl-8-[(4-methoxy-3,5-dimethyl-pyridin-2-yl)methyl]-7,8-dihydropteridin-6(5H)-one] had a pIC50 of 6.28.
In turn, `COC(=O)C[C@@H]1C(=O)Nc2cnc(N)nc2N1Cc1ncc(C)c(OC)c1C` [Example 7.3, Methyl {(7R)-2-amino-8-[(4-methoxy-3,5-dimethylpyridin-2-yl)methyl]-6-oxo-5,6,7,8-tetrahydropteridin-7-yl}acetate] gave a pIC50 of 6.49.
Same read-out and setting: as for `CCC[C@@H]1C(=O)Nc2cnc(N)nc2N1Cc1ncc(C)c(OC)c1C` [Example 7.4, (7R)-2-amino-8-[(4-methoxy-3,5-dimethyl-pyridin-2-yl)methyl]-7-propyl-7,8-dihydropteridin-6(5H)-one], the figure is 5.75; as for `COc1c(C)cnc(CN2CC(=O)Nc3c(Cl)nc(N)nc32)c1C` [Example 8, 2-Amino-4-chloro-8-[(4-methoxy-3,5-dimethyl-pyridin-2-yl)methyl]-5,7-dihydropteridin-6-one], 7.00; as for `COc1c(C)cnc(CN2CC(=O)Nc3c(SC)nc(N)nc32)c1C` [Example 9, 2-Amino-8-[(4-methoxy-3,5-dimethyl-pyridin-2-yl)methyl]-4-methylsulfanyl-5,7-dihydropteridin-6-one], 5.86.
The same measure, in the same setting: as for `COCCCN1C(=O)[C@@H](C)N(Cc2ncc(C)c(OC)c2C)c2nc(N)ncc21` [Example 10, (7R)-2-Amino-8-[(4-methoxy-3,5-dimethylpyridin-2-yl)methyl]-5-(3-methoxypropyl)-7-methyl-7,8-dihydropteridin-6(5H)-one], the figure is 5.92; as for `COCCCN1C(=O)CN(Cc2ncc(C)c(OC)c2C)c2nc(N)ncc21` [Example 11.1, 2-amino-8-[(4-methoxy-3,5-dimethylpyridin-2-yl)methyl]-5-(3-methoxypropyl)-7,8-dihydropteridin-6(5H)-one], 5.71.
`COc1c(C)cnc(CN2c3nc(N)ncc3N(CCc3ccccc3)C(=O)[C@H]2C)c1C` [Example 11.2, (7R)-2-amino-8-[(4-methoxy-3,5-dimethylpyridin-2-yl)methyl]-7-methyl-5-(2-phenylethyl)-7,8-dihydropteridin-6(5H)-one] gave a negative logarithm of the IC50 (pIC50) of 6.89.
Turning to `COc1c(C)cnc(CN2c3nc(N)ncc3N(CCN3CCNCC3)C(=O)[C@H]2C)c1C` [Example 11.3, (7R)-2-amino-8-[(4-methoxy-3,5-dimethylpyridin-2-yl)methyl]-7-methyl-5-(2-piperazin-1-ylethyl)-7,8-dihydropteridin-6(5H)-one], the pIC50 is 5.11.
For the compound `COc1c(C)cnc(CN2c3nc(N)ncc3N(CC(F)F)C(=O)[C@H]2C)c1C` [Example 11.4, (7R)-2-amino-5-(2,2-difluoroethyl)-8-[(4-methoxy-3,5-dimethylpyridin-2-yl)methyl]-7-methyl-7,8-dihydropteridin-6(5H)-one], the pIC50 was 6.72.
In turn, `COc1c(C)cnc(CN2CC(=O)N(CCC(C)C)c3cnc(N)nc32)c1C` [Example 11.5, 2-amino-8-[(4-methoxy-3,5-dimethylpyridin-2-yl)methyl]-5-(3-methylbutyl)-7,8-dihydropteridin-6(5H)-one] gave a negative-log IC50 (pIC50) of 5.42.

Staying with this test, now noted: verbal assessment.
For the compound `COc1c(C)cnc(CN2c3nc(N)ncc3NC[C@@H]2C)c1C` [Example 5, (7S)-8-[(4-methoxy-3,5-dimethylpyridin-2-yl)methyl]-7-methyl-5,6,7,8-tetrahydropteridin-2-amine], the “activity in the enzyme assay, test (a)” value was “low activity”.
For `COc1c(C)cnc(CN2c3nc(N)ncc3N(C)C[C@@H]2C)c1C` [Example 6.1, (7S)-8-[(4-methoxy-3,5-dimethylpyridin-2-yl)methyl]-5,7-dimethyl-5,6,7,8-tetrahydropteridin-2-amine], the “activity in the enzyme assay, test (a)” value is “low activity”.

One may read the pIC50 as −log10 of the IC50, conventionally taken in molar units.
